Patent US7910559B2, “Decladinosyl-macrolides with anti-inflammatory activity” (GlaxoSmithKline istrazivacki centar Zagreb d.o.o., priority 2005, dated 2011)
Read-outs that look alike come from different tables or passages of the source.

Experiments:
Format in all cases: cell-based
[1] = system: human IL-1β; assay: Inhibition of IL-1β production by stimulated human peripheral blood leukocytes in vitro (ELISA); conditions: PBL; for inhibition at 10 µM / inhibition at 50 µM: Homo sapiens, Leukocyte, read-out: Percentage of inhibition of IL-1β production
Method: (§1) Substances, used in in vitro experiments, were dissolved in dimethyl sulfoxide (DMSO) (Kemika, Croatia) at concentrations of 50 mM and 10 mM and were further diluted to the final concentrations of […] in 1 mL Dulbecco's modified Eagle medium (DMEM) supplemented with 1% heat inactivated fetal bovine serum (FBS), 1% glutamax, 50 U/ml penicillin, 50 μg/ml streptomycin and 2.5 μg/mL Fungizone (amphotericin B). Media and all media supplements were purchased from Gibco, Australia, except FBS that was from Sigma, USA.
(§2) Peripheral blood leukocytes (PBL) were obtained from venous blood of healthy volunteers by sedimentation on 2% dextran T-500 (Amersham Biosciences, USA) and subsequent centrifugations of leukocyte-rich plasma.
(§3) Peripheral blood leukocytes (PBL), isolated as described above, were seeded in a 48-well plate at a concentration of 3-5×10^6 cell per well in culture medium consisting of RPMI 1640 medium (Institute of Immunology, Croatia) supplemented with 10% heat-inactivated fetal calf serum (FCS, Biowhittaker, USA), 100 U/ml penicillin (Gibco, Australia), 100 μg/ml streptomycin (Gibco, Australia) and 2 mM L-glutamine (Gibco, Australia), and preincubated with the tested compounds for 2 h at 37° C., in an atmosphere of 5% CO2, and 90% humidity. Afterwards, stimuli (Sigma, USA) were added to a final concentration of 2 μg/mL lipopolysaccharide (LPS), 1 μg/mL phorbol 12-myristate 13-acetate (PMA) or 120 μg/mL zymosan. Samples were incubated overnight under conditions described above. At the end of incubation supernatants were transferred to eppendorf tubes and centrifuged for 10 min at 1500 g. Concentrations of human TNF-α, IL-1β, IL-6 and IL-8 were determined in cell supernatants by sandwich ELISA, using capture and detection antibodies (R&D, USA) according to manufacturer's recommendations.
(§4) Inhibition (as percentage) was calculated using the following formula: % inhibition=(1−concentration of cytokines in sample/concentration of cytokines in positive control)×100 where “positive control” refers to stimulated samples not treated with substances.

[2] = system: human IL-6; assay: Inhibition of IL-6 production by stimulated human peripheral blood leukocytes in vitro (ELISA); conditions: PBL; for inhibition at 10 µM / inhibition at 50 µM: Homo sapiens, Leukocyte, read-out: Percentage of inhibition of IL-6 production
Method: as §1, §2, §3, §4

[3] = system: human peripheral blood mononuclear cells (PBMC); assay: Human peripheral blood mononuclear cell proliferation in vitro ((3H)thymidine incorporation)
Method: as §1
Heparinized peripheral blood was obtained from healthy donors, and peripheral blood mononuclear cells (PBMC) were isolated by Histopaque 1077 (Sigma, USA) density centrifugation at 400 g for 30 minutes. Collected PBMC were centrifuged in plasma at 400 g/10 min, resuspended and washed in RPMI 1640 (Institute of Immunology, Croatia) by centrifugation.
Influence of substances at two different concentrations (50 μM and 10 μM) on proliferation of human peripheral blood mononuclear cells (PBMC) was assessed.
Heparinized peripheral blood was obtained from healthy donors, and PBMC were isolated by Histopaque 1077 (Sigma, USA) density centrifugation at 400 g for 30 minutes. 5×10^4 cells/well were cultured for 3 days in the RPMI medium as described above, in the presence (positive control) or absence (negative control) of stimulators [PHA (2.5 μg/mL) (Sigma, USA) or both PMA (10 ng/mL) (Sigma, USA) and ionomycin (500 ng/mL) (Calbiochem, USA)] and tested substances at 37° C. in 5% CO2 and 90% humidity. The cells were pulsed with 1 μCi of (^3H)thymidine (Amersham, USA) per well during the last 18 h of the cultures and were harvested on a 96-well filter (Packard Bioscience, USA) with a multiple cell harvester (Packard, USA). The incorporation of (^3H)thymidine in activated cells was measured by TopCount NXT (Packard, USA).
Inhibition of cell proliferation (as a percentage) was calculated using the following formula: % inhibition=(1−(^3H)thymidine incorporation expressed in counts per minute (cpm) in sample/(3H)thymidine incorporation expressed in cpm in positive control)×100 where “positive control” refers to stimulated samples not treated with substances.

[4] = system: human TNF-α; assay: Inhibition of TNF-α production by stimulated human peripheral blood leukocytes in vitro (ELISA); conditions: PBL; for inhibition at 10 µM / inhibition at 50 µM: Homo sapiens, Leukocyte, read-out: Percentage of inhibition of TNF-α production
Method: as §1, §2, §3, §4

[5] = system: human IL-8; assay: Inhibition of IL-8 production by stimulated human peripheral blood leukocytes in vitro (ELISA); conditions: PBL; for inhibition at 10 µM / inhibition at 50 µM: Homo sapiens, Leukocyte, read-out: Percentage of inhibition of IL-8 production
Method: as §1, §2, §3, §4

[6] = system: Hep G2; conditions: human, 24 h
Method: (§5) Anti-inflammatory activity of compounds, i.e. observed inhibition of cytokine production and inhibition of proliferation in vitro, is not a consequence of their cytotoxicity.
(§6) Measurement of the succinate dehydrogenase activity in living cells was performed in order to assess the cytotoxicity of compounds of the invention. Cells were cultured for 24 hours in RPMI medium as described above at 37° C., in the presence of the tested compounds at concentrations of 50 μM and 12.5 μM. Afterwards, MTT [3-(4,5-dimethylthiazole-2-yl)-2,5-diphenyl tetrazolium bromide] (Promega, USA) as detection reagent was added and incubated for 0.5-2 hours. The amount of produced MTT-Formazan was determined spectrophotometrically at 490 nm (Mosmann, J. Immunol. Methods, 1983, 65: 55-63).
(§7) Percentage of viable cells was calculated using the following formula: % viable cells=[…]

[7] = system: THP-1; conditions: human, 24 h
Method: as §5, §6, §7

[8] = system: A549; conditions: human, 24 h
Method: as §5, §6, §7

[9] = LPS stimulation, compound 10 μM
[10] = LPS stimulation, compound 50 μM
[11] = PMA stimulation, compound 10 μM
[12] = PMA stimulation, compound 50 μM
[13] = zymosan stimulation, compound 10 μM
[14] = zymosan stimulation, compound 50 μM

3-O-(3-Diethylamino-propionyl)-3-O-decladinosyl-6-O-methyl-9a-aza-9a-homoerythromycin A [Example 2]
Percentage of inhibition of IL-1β production [1, 9]: 83%
Percentage of inhibition of IL-1β production [1, 10]: 91%
Percentage of inhibition of IL-1β production [1, 11]: 60%
Percentage of inhibition of IL-1β production [1, 12]: 78%
Percentage of inhibition of IL-1β production [1, 13]: 96%
Percentage of inhibition of IL-1β production [1, 14]: 94%
Percentage of inhibition of IL-6 production [2, 9]: 40%
Percentage of inhibition of IL-6 production [2, 10]: 94%
Percentage of inhibition of IL-6 production [2, 11]: 17%
Percentage of inhibition of IL-6 production [2, 12]: 68%
Percentage of inhibition of IL-6 production [2, 13]: 45%
Percentage of inhibition of IL-6 production [2, 14]: 91%
Percentage of inhibition of proliferation of stimulated PBMC ([3]; PHA stimulation, compound 10 μM): 80%
Percentage of inhibition of proliferation of stimulated PBMC ([3]; PHA stimulation, compound 50 μM): 98%
Percentage of inhibition of proliferation of stimulated PBMC ([3]; PMA + ionomycin stimulation, compound 10 μM): 0%
Percentage of inhibition of proliferation of stimulated PBMC ([3]; PMA + ionomycin stimulation, compound 50 μM): 99%
Percentage of inhibition of TNF-α production [4, 9]: 37%
Percentage of inhibition of TNF-α production [4, 10]: 80%
Percentage of inhibition of TNF-α production [4, 11]: 34%
Percentage of inhibition of TNF-α production [4, 12]: 55%
Percentage of inhibition of TNF-α production [4, 13]: 13%
Percentage of inhibition of TNF-α production [4, 14]: 60%
Percentage of inhibition of IL-8 production [5, 9]: 40%
Percentage of inhibition of IL-8 production [5, 10]: 96%
Percentage of inhibition of IL-8 production [5, 11]: 0%
Percentage of inhibition of IL-8 production [5, 12]: 92%
Percentage of inhibition of IL-8 production [5, 13]: 32%
Percentage of inhibition of IL-8 production [5, 14]: 87%

CC[C@H]1OC(=O)[C@H](C)[C@@H](OC(=O)CCN2CCN(CCN(CC)CC)CC2)[C@H](C)[C@@H](O[C@@H]2O[C@H](C)C[C@H](N(C)C)[C@H]2O)[C@](C)(OC)C[C@@H](C)C(=O)N[C@H](C)[C@@H](O)[C@]1(C)O [Example 18, 6-O-Methyl-3-O-decladinosyl-3-O-{3-[4-(2-Diethylamino-ethyl)-piperazin-1-yl]-propionyl}-9a-aza-9a-homoerythromycin A]
inhibition at 10 µM [1, 9]: 44%
inhibition at 50 µM [1, 10]: 73%
inhibition at 10 µM [1, 11]: 66%
inhibition at 50 µM [1, 12]: 87%
inhibition at 10 µM [1, 13]: 32%
inhibition at 50 µM [1, 14]: 76%
inhibition at 10 µM [2, 9]: 9%
inhibition at 50 µM [2, 10]: 50%
inhibition at 10 µM [2, 11]: 53%
inhibition at 50 µM [2, 12]: 47%
inhibition at 10 µM [2, 13]: 18%
inhibition at 50 µM [2, 14]: 47%
inhibition at 10 µM [4, 9]: 7%
inhibition at 50 µM [4, 10]: 0%
inhibition at 10 µM [4, 11]: 50%
inhibition at 50 µM [4, 12]: 82%
inhibition at 10 µM [4, 13]: 12%
inhibition at 50 µM [4, 14]: 0%
inhibition at 10 µM [5, 9]: 1%
inhibition at 50 µM [5, 10]: 30%
inhibition at 10 µM [5, 11]: 16%
inhibition at 50 µM [5, 12]: 13%
inhibition at 10 µM [5, 13]: 3%
inhibition at 50 µM [5, 14]: 21%
Percentage of viable cells after treatment ([6]; 12.5 μM): >95%
Percentage of viable cells after treatment ([6]; 50 μM): 100%
Percentage of viable cells after treatment ([7]; 12.5 μM): 100%
Percentage of viable cells after treatment ([7]; 50 μM): 100%
Percentage of viable cells after treatment ([8]; 12.5 μM): 100%
Percentage of viable cells after treatment ([8]; 50 μM): 100%
